Results taken from PMC9697198, “Carbonic Anhydrase Inhibition Activities of Schiff’s Bases Based on Quinazoline-Linked Benzenesulfonamide” (Molecules, 2022).
“And” between values parts separate entries of the source, which are not always exact repeats. Identical values can stand only once.

Legend:
hCA XII = hCA XII (Homo sapiens, UniProt O43570); assay: hCA XII inhibition, stopped-flow assay; format: biochemical; conditions: for Selectivity Analysis hCA I/XII / Selectivity Analysis hCA II/XII: selectivity index (SI); for Selectivity Analysis hCA I/XII: ratio of Ki hCA I to Ki hCA XII; for Selectivity Analysis hCA II/XII: ratio of Ki hCA II to Ki hCA XII; for Ki: stopped-flow technique, mean from three different assays, errors ±5–10%
Chain of hCA XII (O43570 25-354): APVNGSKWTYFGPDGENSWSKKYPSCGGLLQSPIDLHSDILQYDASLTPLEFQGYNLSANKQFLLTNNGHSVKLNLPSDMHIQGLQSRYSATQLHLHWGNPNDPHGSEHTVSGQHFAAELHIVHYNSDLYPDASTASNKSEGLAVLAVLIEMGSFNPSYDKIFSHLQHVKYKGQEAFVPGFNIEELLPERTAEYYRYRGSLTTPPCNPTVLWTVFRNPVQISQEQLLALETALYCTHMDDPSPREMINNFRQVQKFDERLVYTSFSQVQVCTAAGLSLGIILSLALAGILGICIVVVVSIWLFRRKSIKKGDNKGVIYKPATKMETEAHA

hCA I = hCA I (Homo sapiens, UniProt P00915); assay: hCA I inhibition, stopped-flow assay; format: biochemical; conditions: stopped-flow technique; mean from three different assays, errors ±5–10%
Chain of hCA I (P00915 whole entry): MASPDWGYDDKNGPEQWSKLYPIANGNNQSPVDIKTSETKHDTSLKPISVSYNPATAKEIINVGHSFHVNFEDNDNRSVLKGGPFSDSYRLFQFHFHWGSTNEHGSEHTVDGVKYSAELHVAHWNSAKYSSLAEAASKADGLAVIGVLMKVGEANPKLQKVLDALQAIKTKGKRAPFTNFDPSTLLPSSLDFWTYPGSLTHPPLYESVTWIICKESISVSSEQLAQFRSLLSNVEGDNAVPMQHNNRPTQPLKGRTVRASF

hCA IX = hCA IX (Homo sapiens, UniProt Q16790); assay: hCA IX inhibition, stopped-flow assay; format: biochemical; conditions: for Selectivity Analysis hCA I/IX / Selectivity Analysis hCA II/IX: selectivity index (SI); for Selectivity Analysis hCA I/IX: ratio of Ki hCA I to Ki hCA IX; for Selectivity Analysis hCA II/IX: ratio of Ki hCA II to Ki hCA IX; for Ki: stopped-flow technique, mean from three different assays, errors ±5–10%
hCA II = hCA II (Homo sapiens, UniProt P00918); assay: hCA II inhibition, stopped-flow assay; format: biochemical; conditions: stopped-flow technique; mean from three different assays, errors ±5–10%

| SMILES | Selectivity Analysis hCA I/XII (hCA XII) | Selectivity Analysis hCA II/XII (hCA XII) | Ki (hCA XII) [nM] | Ki (hCA I) [nM] | melting point [°C] | Selectivity Analysis hCA I/IX (hCA IX) | Selectivity Analysis hCA II/IX (hCA IX) | Ki (hCA IX) | Ki (hCA II) [nM] |
| --- | --- | --- | --- | --- | --- | --- | --- | --- | --- |
| CN(C)c1ccc(C=NNC(=O)CSc2nc3ccccc3c(=O)n2CCc2ccc(S(N)(=O)=O)cc2)cc1 [Compound 15, 4-(2-(2-((2-(2-(4-(Dimethylamino)benzylidene)hydrazineyl)-2-oxoethyl)thio)-4-oxoquinazolin-3(4H)-yl)ethyl)benzenesulfonamide] | 85.58 | 12.07 | 6.8 | 582 | 280 to 281 | 6.56 | 0.92 | 89.1 nM and 88.6 nM | 82.1 |
| NS(=O)(=O)c1ccc(CCn2c(SCC(=O)N/N=C/c3ccccc3)nc3ccccc3c2=O)cc1 [Compound 4, 4-(2-(2-((2-(2-Benzylidenehydrazineyl)-2-oxoethyl)thio)-4-oxoquinazolin-3(4H)-yl)ethyl)benzenesulfonamide] | – | – | 38.4 | 152 | 296 to 298 | – | – | 61.7 nM | 52.6 |
| NS(=O)(=O)c1ccc(CCn2c(SCC(=O)NN=Cc3ccc([N+](=O)[O-])cc3)nc3ccccc3c2=O)cc1 [Compound 14, 4-(2-(2-((2-(2-(4-Nitrobenzylidene)hydrazineyl)-2-oxoethyl)thio)-4-oxoquinazolin-3(4H)-yl)ethyl)benzenesulfonamide] | 20.83 | 7.23 | 30.5 | 635 | 296 to 297 | 23.62 | 8.20 | 26.9 nM | 221 |
| NS(=O)(=O)c1ccc(CCn2c(SCC(=O)NN=Cc3cccnc3)nc3ccccc3c2=O)cc1 [Compound 16, 4-(2-(4-Oxo-2-((2-oxo-2-(2-(pyridin-3-ylmethylene)hydrazineyl)ethyl)thio)quinazolin-3(4H)-yl)ethyl)benzenesulfonamide] | 10.0 | 1.14 | 20.8 | 208 | 263 to 264 | 5.5 | 0.63 | 37.8 nM | 23.8 |
| NS(=O)(=O)c1ccc(CCn2c(SCC(=O)NN=Cc3ccc(Cl)cc3)nc3ccccc3c2=O)cc1 [Compound 6, 4-(2-(2-((2-(2-(4-Chlorobenzylidene)hydrazineyl)-2-oxoethyl)thio)-4-oxoquinazolin-3(4H)-yl)ethyl)benzenesulfonamide] | 8.37 | 1.87 | 67.8 | 568 | 288 to 289 | 6.37 | 1.42 | 88.6 nM and 89.1 nM | 127 |
| CC(=NNC(=O)CSc1nc2ccccc2c(=O)n1CCc1ccc(S(N)(=O)=O)cc1)c1ccc(F)cc1 [Compound 24, 4-(2-(2-((2-(2-(1-(4-Fluorophenyl)ethylidene)hydrazineyl)-2-oxoethyl)thio)-4-oxoquinazolin-3(4H)-yl)ethyl)benzenesulfonamide] | 7.35 | 1.55 | 25.4 | 187 | 299 to 300 | 6.55 | 1.38 | 28.5 nM | 39.5 |
| CC(=NNC(=O)CSc1nc2ccccc2c(=O)n1CCc1ccc(S(N)(=O)=O)cc1)c1cccc(Cl)c1 [Compound 22, 4-(2-(2-((2-(2-(1-(3-Chlorophenyl)ethylidene)hydrazineyl)-2-oxoethyl)thio)-4-oxoquinazolin-3(4H)-yl)ethyl)benzenesulfonamide] | 18.49 | 7.23 | 46.9 | 867 | 297 to 298 | 11.51 | 4.50 | 75.3 nM | 339 |

The remaining lines, values ahead:

| Selectivity Analysis hCA I/XII (hCA XII) | Selectivity Analysis hCA II/XII (hCA XII) | Ki (hCA XII) [nM] | Ki (hCA I) [nM] | melting point [°C] | Selectivity Analysis hCA I/IX (hCA IX) | Selectivity Analysis hCA II/IX (hCA IX) | Ki (hCA IX) | Ki (hCA II) [nM] | SMILES |
| --- | --- | --- | --- | --- | --- | --- | --- | --- | --- |
| 1.85 | 0.80 | 28.5 | 52.8 | 300 to 301 | 0.77 | 0.33 | 68.2 nM | 22.8 | CC(=NNC(=O)CSc1nc2ccccc2c(=O)n1CCc1ccc(S(N)(=O)=O)cc1)c1ccccn1 [Compound 26, 4-(2-(4-Oxo-2-((2-oxo-2-(2-(1-(pyridin-2-yl)ethylidene)hydrazineyl)ethyl)thio)quinazolin-3(4H)-yl)ethyl)benzenesulfonamide] |
| 27.64 | 3.72 | 15.9 | 439 | 308 to 309 | 75.77 | 10.22 | 5.8 nM | 59.3 | CC(=NNC(=O)CSc1nc2ccccc2c(=O)n1CCc1ccc(S(N)(=O)=O)cc1)c1ccc(N)cc1 [Compound 19, 4-(2-(2-((2-(2-(1-(4-Aminophenyl)ethylidene)hydrazineyl)-2-oxoethyl)thio)-4-oxoquinazolin-3(4H)-yl)ethyl)benzenesulfonamide] |
| 8.35 | 3.13 | 15.8 | 132 | 292 to 293 | 8.57 | 3.21 | 15.4 nM | 49.5 | NS(=O)(=O)c1ccc(CCn2c(SCC(=O)NN=Cc3ccc(F)cc3)nc3ccccc3c2=O)cc1 [Compound 11, 4-(2-(2-((2-(2-(4-Fluorobenzylidene)hydrazineyl)-2-oxoethyl)thio)-4-oxoquinazolin-3(4H)-yl)ethyl)benzenesulfonamide] |
